Data taken from PMC3268671 (Cell, 2012).

Target: PfHRPII HT-GFP (HT/RLLYE-GFP)
Type: binding, Plasmodium falciparum

PI(3)P
Kd: > 5 µM
